# Measured values: US9493455B2, “Azaindole derivatives as inhibitors of protein kinases” (ORIBASE PHARMA, priority 2012, dated 2016)
# pEC50: −log10 of the molar value.
# Columns and labels:
# BRAF = target: T1, BRAF (Homo sapiens, UniProt P15056); experiment: In vitro kinase assay (Z′-LYTE); assay type: biochemical; settings: compound 100 nM; ATP 100 μM; read-out: % of inhibition of the kinase compared to the control
# T1 construct: purchased Invitrogen
# Method: (§1) The inhibitory activity of the compounds on several kinases including BRAF, EGFR (ErbB1), EGFR (ErbB1) T790M L858R, FGFR2, KDR (VEGFR2), PDGFRA (PDGFR alpha), SRC and other was evaluated by Invitrogen using the Z′-LYTE® technology. Briefly, the Z′-LYTE® biochemical assay employs a fluorescence-based, coupled-enzyme format and is based on the differential sensitivity of phosphorylated and non-phosphorylated peptides to proteolytic cleavage. The peptide substrate is labeled with two fluorophores—one at each end—that make up a FRET pair. A ratiometric method, which calculates the ratio (the Emission Ratio) of donor emission to acceptor emission after excitation of the donor fluorophore at 400 nm, is used to quantitate reaction progress.
# (§2) The compounds are screened in 1% DMSO (final) in the well. For 10 point titrations, 3-fold serial dilutions are conducted from the starting concentration. All Peptide/Kinase Mixtures are diluted to a 2× working concentration in the appropriate Kinase Buffer. All ATP Solutions are diluted to a 4× working concentration in Kinase Buffer (50 mM HEPES pH 7.5, 0.01% BRIJ-35, 10 mM MgCl2, 1 mM EGTA). ATP Km apparent is previously determined using a Z′-LYTE® assay.
# (§3) Each compound was incubated at a concentration of 100 nM (excepted to test the activity against ABL and ABL T315I for which the compounds were incubated at a concentration of 10 μM) and the tables B1 to B12 summarize the results obtained showing the inhibitory power of a compound. The inhibitory activity of OR0512 was also investigated using the same assays and the kinases for which activity was inhibited at more than 50% at the concentration of 100 nM of OR0512 are listed in the table B13.
# EGFR (ErbB1) = target: T2, EGFR (ErbB1) (Homo sapiens, UniProt P00533); experiment: In vitro kinase assay (Z′-LYTE); assay type: biochemical; settings: read-out: % of inhibition of the kinase compared to the control
# T2 construct: purchased Invitrogen
# T2 sequence (P00533 25-1210): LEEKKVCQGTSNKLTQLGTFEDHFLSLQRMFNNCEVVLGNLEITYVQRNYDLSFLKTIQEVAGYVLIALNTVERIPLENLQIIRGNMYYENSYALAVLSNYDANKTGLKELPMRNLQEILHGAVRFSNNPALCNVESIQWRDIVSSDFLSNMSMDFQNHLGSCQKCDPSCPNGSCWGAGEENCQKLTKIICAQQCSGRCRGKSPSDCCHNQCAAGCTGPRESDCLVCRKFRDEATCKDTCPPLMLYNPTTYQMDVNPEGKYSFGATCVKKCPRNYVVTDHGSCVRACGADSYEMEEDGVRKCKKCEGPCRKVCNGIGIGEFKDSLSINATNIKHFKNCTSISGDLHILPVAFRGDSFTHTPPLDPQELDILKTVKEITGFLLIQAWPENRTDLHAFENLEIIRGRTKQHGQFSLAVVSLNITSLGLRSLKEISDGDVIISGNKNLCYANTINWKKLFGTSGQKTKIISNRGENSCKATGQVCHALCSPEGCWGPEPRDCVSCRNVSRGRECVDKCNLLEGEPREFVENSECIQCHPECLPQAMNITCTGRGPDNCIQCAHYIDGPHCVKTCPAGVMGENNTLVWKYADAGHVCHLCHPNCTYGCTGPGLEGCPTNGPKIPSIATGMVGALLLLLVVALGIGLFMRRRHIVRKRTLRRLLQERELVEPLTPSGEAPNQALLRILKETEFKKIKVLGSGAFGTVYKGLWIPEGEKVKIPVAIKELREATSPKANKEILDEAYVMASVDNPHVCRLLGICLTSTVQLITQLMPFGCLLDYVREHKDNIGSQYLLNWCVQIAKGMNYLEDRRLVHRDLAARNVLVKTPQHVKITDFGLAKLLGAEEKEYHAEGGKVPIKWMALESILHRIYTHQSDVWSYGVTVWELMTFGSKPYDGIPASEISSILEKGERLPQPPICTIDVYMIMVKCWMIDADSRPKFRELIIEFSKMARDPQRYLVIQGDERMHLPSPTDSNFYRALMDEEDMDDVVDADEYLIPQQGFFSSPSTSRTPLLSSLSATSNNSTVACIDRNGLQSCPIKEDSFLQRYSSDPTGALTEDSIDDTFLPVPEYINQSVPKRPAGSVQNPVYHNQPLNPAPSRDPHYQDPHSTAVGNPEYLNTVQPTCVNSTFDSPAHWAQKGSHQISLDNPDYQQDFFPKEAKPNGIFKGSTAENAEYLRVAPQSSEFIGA
# Method: as §1, §2, §3
# FGFR2 = target: T3, FGFR2 (Homo sapiens, UniProt P21802); experiment: In vitro kinase assay (Z′-LYTE); assay type: biochemical; settings: read-out: % of inhibition of the kinase compared to the control
# T3 construct: purchased Invitrogen
# Method: as §1, §2, §3
# KDR (VEGFR2) = target: T4, KDR (VEGFR2) (Homo sapiens, UniProt P35968); experiment: In vitro kinase assay (Z′-LYTE); assay type: biochemical; settings: read-out: % of inhibition of the kinase compared to the control
# T4 construct: purchased Invitrogen
# Method: as §1, §2, §3
# PDGFRA (PDGFR alpha) = target: T5, PDGFRA (PDGFR alpha) (Homo sapiens, UniProt P16234); experiment: In vitro kinase assay (Z′-LYTE); assay type: biochemical; settings: read-out: % of inhibition of the kinase compared to the control
# T5 construct: purchased Invitrogen
# T5 sequence (P16234 24-1089): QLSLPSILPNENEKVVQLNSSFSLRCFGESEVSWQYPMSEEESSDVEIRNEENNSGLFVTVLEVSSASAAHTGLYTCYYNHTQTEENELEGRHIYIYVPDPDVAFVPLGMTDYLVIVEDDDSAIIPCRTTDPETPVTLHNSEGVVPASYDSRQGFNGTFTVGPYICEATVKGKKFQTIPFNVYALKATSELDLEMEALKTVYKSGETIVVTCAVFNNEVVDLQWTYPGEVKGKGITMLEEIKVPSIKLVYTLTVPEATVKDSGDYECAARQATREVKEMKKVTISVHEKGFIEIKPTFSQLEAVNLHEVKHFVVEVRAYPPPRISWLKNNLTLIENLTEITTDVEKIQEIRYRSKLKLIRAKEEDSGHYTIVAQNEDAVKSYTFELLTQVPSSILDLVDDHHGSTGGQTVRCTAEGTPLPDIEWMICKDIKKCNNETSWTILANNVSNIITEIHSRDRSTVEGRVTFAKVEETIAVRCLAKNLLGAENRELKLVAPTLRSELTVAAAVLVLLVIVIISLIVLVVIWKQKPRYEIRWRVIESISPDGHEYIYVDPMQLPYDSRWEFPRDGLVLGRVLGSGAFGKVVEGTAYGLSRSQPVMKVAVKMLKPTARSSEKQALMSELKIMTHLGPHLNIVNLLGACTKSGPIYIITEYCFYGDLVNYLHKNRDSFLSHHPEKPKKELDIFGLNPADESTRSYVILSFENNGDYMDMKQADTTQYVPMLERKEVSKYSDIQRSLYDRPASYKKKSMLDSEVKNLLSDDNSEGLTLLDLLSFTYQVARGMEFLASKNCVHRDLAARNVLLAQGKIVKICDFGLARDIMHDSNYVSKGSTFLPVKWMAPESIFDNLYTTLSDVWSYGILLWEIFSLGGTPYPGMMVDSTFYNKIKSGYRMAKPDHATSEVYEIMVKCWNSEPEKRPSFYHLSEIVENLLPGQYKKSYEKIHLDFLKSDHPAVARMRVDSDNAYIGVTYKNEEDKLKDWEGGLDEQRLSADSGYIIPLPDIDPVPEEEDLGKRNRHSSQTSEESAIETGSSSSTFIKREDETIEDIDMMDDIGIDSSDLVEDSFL
# Method: as §1, §2, §3
# SRC = target: T6, SRC (Homo sapiens, UniProt P12931); experiment: In vitro kinase assay (Z′-LYTE); assay type: biochemical; settings: read-out: % of inhibition of the kinase compared to the control
# T6 construct: purchased Invitrogen
# Method: as §1, §2, §3
# HUVEC = experiment: In vitro cell proliferation assay (MTT); assay type: cell-based; settings: Homo sapiens, 72 h
# Method: (§4) Cancer cell lines (5×10^3 cells per well) or HUVEC (1×10^4 cells per well) or HRMEC (1×10^4 cells per well) were distributed in 96-well plates and incubating in duplicate with escalating concentrations (10 nM to 3 μM) of compounds for 72 hr. Cell proliferation was measured using MTT (3 [4,5-dimethylthiazol-2-yl]-2,5-diphenyltetrazolium bromide).
# HepG2 = experiment: In vitro cell proliferation assay (MTT); assay type: cell-based; settings: Homo sapiens, HepG2, 72 h
# Method: as §4
# HuH7 = experiment: In vitro cell proliferation assay (MTT); assay type: cell-based; settings: Homo sapiens, Huh-7, 72 h
# Method: as §4
# ABL = target: T7, ABL (Homo sapiens, UniProt P00519); experiment: In vitro kinase assay (Z′-LYTE); assay type: biochemical; settings: read-out: % of inhibition of the kinase compared to the control
# T7 construct: purchased Invitrogen
# Method: as §1, §2, §3
# ABL T315I = target: T8, ABL T315I (Homo sapiens, UniProt P00519, T315I); experiment: In vitro kinase assay (Z′-LYTE); assay type: biochemical; settings: read-out: % of inhibition of the kinase compared to the control
# T8 construct: purchased Invitrogen
# Method: as §1, §2, §3
# EGFR (ErbB1) T790M L858R = target: T9, EGFR (ErbB1) T790M L858R (Homo sapiens, UniProt P00533, L858R/T790M); experiment: In vitro kinase assay (Z′-LYTE); assay type: biochemical; settings: read-out: % of inhibition of the kinase compared to the control
# T9 construct: purchased Invitrogen
# T9 sequence (P00533 25-1210 T790M/L858R): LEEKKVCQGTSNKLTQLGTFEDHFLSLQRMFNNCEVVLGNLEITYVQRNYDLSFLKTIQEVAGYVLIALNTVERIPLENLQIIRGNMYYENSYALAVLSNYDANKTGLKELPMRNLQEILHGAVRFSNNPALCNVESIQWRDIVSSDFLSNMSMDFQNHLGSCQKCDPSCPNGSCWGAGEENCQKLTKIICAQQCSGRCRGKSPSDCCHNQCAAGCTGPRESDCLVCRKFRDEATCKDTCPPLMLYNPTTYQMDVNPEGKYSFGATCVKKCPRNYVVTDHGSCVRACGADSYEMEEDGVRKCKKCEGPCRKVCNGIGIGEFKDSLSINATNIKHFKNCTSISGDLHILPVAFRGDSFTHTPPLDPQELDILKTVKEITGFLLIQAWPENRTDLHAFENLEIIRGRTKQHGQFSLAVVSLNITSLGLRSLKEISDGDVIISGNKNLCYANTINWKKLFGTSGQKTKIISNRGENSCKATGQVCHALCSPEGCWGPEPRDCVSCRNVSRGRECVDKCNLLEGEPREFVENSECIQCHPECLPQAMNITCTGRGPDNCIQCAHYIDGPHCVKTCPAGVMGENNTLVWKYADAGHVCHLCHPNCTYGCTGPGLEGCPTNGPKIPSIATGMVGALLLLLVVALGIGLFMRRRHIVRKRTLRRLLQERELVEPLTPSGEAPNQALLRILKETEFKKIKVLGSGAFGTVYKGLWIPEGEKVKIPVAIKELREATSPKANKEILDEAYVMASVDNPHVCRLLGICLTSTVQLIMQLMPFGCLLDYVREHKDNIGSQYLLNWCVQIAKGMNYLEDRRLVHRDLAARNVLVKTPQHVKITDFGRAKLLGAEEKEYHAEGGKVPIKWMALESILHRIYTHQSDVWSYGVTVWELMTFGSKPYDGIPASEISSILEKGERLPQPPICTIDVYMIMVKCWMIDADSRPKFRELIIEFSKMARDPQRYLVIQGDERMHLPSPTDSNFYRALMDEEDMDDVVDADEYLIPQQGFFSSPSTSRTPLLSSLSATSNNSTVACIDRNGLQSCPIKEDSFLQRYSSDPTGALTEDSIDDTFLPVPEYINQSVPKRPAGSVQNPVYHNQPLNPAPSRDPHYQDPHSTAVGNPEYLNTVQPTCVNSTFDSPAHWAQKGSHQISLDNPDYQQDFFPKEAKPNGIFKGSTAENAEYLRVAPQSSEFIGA
# Method: as §1, §2, §3
# FGFR1 = target: T10, FGFR1 (Homo sapiens, UniProt P11362); experiment: In vitro kinase assay (Z′-LYTE); assay type: biochemical; settings: read-out: % of inhibition of the kinase compared to the control
# T10 construct: purchased Invitrogen
# T10 sequence (P11362 22-822): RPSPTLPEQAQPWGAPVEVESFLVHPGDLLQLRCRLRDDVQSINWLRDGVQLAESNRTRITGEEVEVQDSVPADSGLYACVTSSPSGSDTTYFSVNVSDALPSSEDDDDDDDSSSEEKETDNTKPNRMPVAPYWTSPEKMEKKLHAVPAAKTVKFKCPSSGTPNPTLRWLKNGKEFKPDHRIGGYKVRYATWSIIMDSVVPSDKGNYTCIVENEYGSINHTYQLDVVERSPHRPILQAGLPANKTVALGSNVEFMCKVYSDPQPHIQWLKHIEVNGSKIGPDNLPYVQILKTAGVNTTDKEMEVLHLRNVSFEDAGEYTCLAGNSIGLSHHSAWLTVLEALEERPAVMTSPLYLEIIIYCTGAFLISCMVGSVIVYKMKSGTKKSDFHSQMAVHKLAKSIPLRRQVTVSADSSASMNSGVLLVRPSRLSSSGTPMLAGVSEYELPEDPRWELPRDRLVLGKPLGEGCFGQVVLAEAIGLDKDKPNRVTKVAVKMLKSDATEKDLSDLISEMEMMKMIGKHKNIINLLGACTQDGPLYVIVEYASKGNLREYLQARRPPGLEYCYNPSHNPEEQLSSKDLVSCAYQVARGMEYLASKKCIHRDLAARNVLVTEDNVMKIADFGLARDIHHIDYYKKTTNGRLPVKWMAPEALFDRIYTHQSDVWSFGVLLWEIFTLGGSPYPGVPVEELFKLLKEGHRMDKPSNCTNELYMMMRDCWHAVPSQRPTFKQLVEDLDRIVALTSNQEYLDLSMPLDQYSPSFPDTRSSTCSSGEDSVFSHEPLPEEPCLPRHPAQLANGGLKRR
# Method: as §1, §2, §3
# PDGFRB = target: T11, PDGFRB (Homo sapiens, UniProt P09619); experiment: In vitro kinase assay (Z′-LYTE); assay type: biochemical; settings: read-out: % of inhibition of the kinase compared to the control
# T11 construct: purchased Invitrogen
# Method: as §1, §2, §3
# VEGFR1 = target: T12, VEGFR1 (Homo sapiens, UniProt P17948); experiment: In vitro kinase assay (Z′-LYTE); assay type: biochemical; settings: read-out: % of inhibition of the kinase compared to the control
# T12 construct: purchased Invitrogen
# Method: as §1, §2, §3
# BxPC-3 = experiment: In vitro cell proliferation assay (MTT); assay type: cell-based; settings: Homo sapiens, BXPC-3, 72 h
# Method: as §4
# A549 = experiment: In vitro cell proliferation assay (MTT); assay type: cell-based; settings: Homo sapiens, A549, 72 h
# Method: as §4
# H1975 = experiment: In vitro cell proliferation assay (MTT); assay type: cell-based; settings: Homo sapiens, NCI-H1975, 72 h
# Method: as §4
# HT29 = experiment: In vitro cell proliferation assay (MTT); assay type: cell-based; settings: Homo sapiens, HT-29, 72 h
# Method: as §4
# HuCCT1 = experiment: In vitro cell proliferation assay (MTT); assay type: cell-based; settings: Homo sapiens, HuCCT-1, 72 h
# Method: as §4
# HeLa = experiment: In vitro cell proliferation assay (MTT); assay type: cell-based; settings: Homo sapiens, 72 h
# Method: as §4
# MDA-MB-231 = experiment: In vitro cell proliferation assay (MTT); assay type: cell-based; settings: Homo sapiens, MDA-MB-231, 72 h
# Method: as §4
# T1 sequence (P15056 whole entry): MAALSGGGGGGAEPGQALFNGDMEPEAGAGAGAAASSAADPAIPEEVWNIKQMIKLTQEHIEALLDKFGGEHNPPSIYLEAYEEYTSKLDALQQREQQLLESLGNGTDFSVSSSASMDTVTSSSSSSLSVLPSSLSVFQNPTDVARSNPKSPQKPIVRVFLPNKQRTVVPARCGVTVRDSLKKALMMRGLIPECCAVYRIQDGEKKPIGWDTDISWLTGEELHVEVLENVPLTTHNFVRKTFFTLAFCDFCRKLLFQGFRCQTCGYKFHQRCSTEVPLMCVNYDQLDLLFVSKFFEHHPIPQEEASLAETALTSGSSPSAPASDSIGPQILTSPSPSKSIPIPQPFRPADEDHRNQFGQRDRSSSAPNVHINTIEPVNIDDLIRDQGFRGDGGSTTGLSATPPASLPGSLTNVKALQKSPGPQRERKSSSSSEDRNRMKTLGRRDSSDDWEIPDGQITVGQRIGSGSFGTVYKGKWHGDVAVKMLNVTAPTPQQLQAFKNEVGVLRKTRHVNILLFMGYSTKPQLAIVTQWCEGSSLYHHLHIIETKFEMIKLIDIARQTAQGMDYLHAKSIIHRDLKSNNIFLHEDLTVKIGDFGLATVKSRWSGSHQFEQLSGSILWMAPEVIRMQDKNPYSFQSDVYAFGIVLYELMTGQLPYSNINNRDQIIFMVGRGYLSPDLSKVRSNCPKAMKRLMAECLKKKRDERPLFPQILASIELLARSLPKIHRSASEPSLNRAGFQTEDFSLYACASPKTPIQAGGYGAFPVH
SMILES,inhibition at 0.1 µM (BRAF) [%],inhibition at 0.1 µM (EGFR (ErbB1)) [%],inhibition at 0.1 µM (FGFR2) [%],inhibition at 0.1 µM (KDR (VEGFR2)) [%],inhibition at 0.1 µM (PDGFRA (PDGFR alpha)) [%],inhibition at 0.1 µM (SRC) [%],pEC50 (HUVEC),pEC50 (HepG2),pEC50 (HuH7),inhibition at 10 µM (ABL) [%],inhibition at 10 µM (ABL T315I) [%],inhibition at 0.1 µM (EGFR (ErbB1) T790M L858R) [%],inhibition at 0.1 µM (FGFR1) [%],inhibition at 0.1 µM (PDGFRB) [%],inhibition at 0.1 µM (VEGFR1) [%],pEC50 (BxPC-3),pEC50 (A549),also measured
COC(=O)c1cc2cc(NCc3cc(NC(=O)c4ccc(C)c(C(F)(F)F)c4)ccc3C)cnc2[nH]1 [OR0869],< 50,≥ 50,< 50,< 50,< 50,≥ 50,6.00 to 7.00,≤ 6.00,6.00 to 7.00,–,–,–,–,–,–,–,–,–
COC(=O)c1cc2cc(NCc3cc(NC(=O)c4ccc(O)c(C(F)(F)F)c4)ccc3C)cnc2[nH]1 [OR0605],< 50,≥ 50,< 50,< 50,≥ 50,≥ 50,–,–,6.00 to 7.00,≥ 50,< 50,< 50,< 50,< 50,< 50,≤ 6.00,–,–
COC(=O)c1cc2cc(NCc3cc(NC(=O)c4cccc(C)c4)ccc3C)cnc2[nH]1 [OR0607],≥ 50,< 50,< 50,≥ 50,≥ 50,≥ 50,≥ 7.00,6.00 to 7.00,–,≥ 50,< 50,< 50,< 50,≥ 50,< 50,6.00 to 7.00,6.00 to 7.00,pEC50 (H1975): 6.00 to 7.00; pEC50 (HT29): 6.00 to 7.00; pEC50 (HuCCT1): 6.00 to 7.00
COC(=O)c1cc2cc(NCc3cc(NC(=O)c4ccnc(C(F)(F)F)c4)ccc3C)cnc2[nH]1 [OR0866],< 50,< 50,< 50,< 50,< 50,–,6.00 to 7.00,6.00 to 7.00,≤ 6.00,–,–,–,–,–,–,–,–,–
COC(=O)c1cc2cc(NCc3cc(NC(=O)c4ccnc(C)c4)ccc3C)cnc2[nH]1 [OR0868],≥ 50,< 50,< 50,< 50,–,–,6.00 to 7.00,≤ 6.00,≤ 6.00,–,–,–,–,–,–,–,–,–
COC(=O)c1cc2cc(NCc3cccc(NC(=O)c4ccc(CN5CCN(C)CC5)c(C(F)(F)F)c4)c3)cnc2[nH]1 [OR1067],< 50,≥ 50,≥ 50,≥ 50,≥ 50,≥ 50,≥ 7.00,≤ 6.00,–,–,–,–,–,–,–,–,6.00 to 7.00,pEC50 (HeLa): 6.00 to 7.00
COC(=O)c1cc2cc(NCc3cc(NC(=O)Cc4ccccc4Br)ccc3C)cnc2[nH]1 [OR0599],≥ 50,< 50,< 50,< 50,≥ 50,≥ 50,6.00 to 7.00,6.00 to 7.00,–,≥ 50,< 50,< 50,< 50,≥ 50,< 50,≤ 6.00,6.00 to 7.00,pEC50 (H1975): 6.00 to 7.00; pEC50 (HT29): ≤ 6.00; pEC50 (HuCCT1): ≤ 6.00
COC(=O)c1cc2cc(NCc3cc(NC(=S)c4ccc(CN5CCN(C)CC5)c(C(F)(F)F)c4)ccc3C)cnc2[nH]1 [OR0626],< 50,≥ 50,≥ 50,< 50,–,–,≤ 6.00,≤ 6.00,–,–,–,–,–,–,–,–,≤ 6.00,pEC50 (HeLa): ≤ 6.00; pEC50 (MDA-MB-231): 6.00 to 7.00
